Assays:
[1] = system: naive central trigeminovascular neurons; conditions: in vivo; cited from earlier work
[2] = system: naive high-threshold (HT) trigeminovascular neurons in the spinal trigeminal nucleus; assay: Single-unit recording of spontaneous and evoked activity of naive HT trigeminovascular neurons; assay type: in vivo, rat; conditions: 30 mg/kg IV
Source text: (§1) Experiments were approved by the Beth Israel Deaconess Medical Center and Harvard Medical School standing committees on animal care, and in accordance with the U. S. National Institutes of Health Guide for the Care and Use of Laboratory Animals. Male and female Sprague-Dawley rats (250-350 g) were anesthetized with urethane (0.9-1.2 g/kg i.p.). They were fitted with an intra-tracheal tube to allow artificial ventilation (0.1 L/min of O2), and an intra-femoral-vein cannula for later infusion of drugs. Rats were placed in a stereotaxic apparatus, and core temperature was kept at 37° C. using a heating blanket. End-tidal CC was continuously monitored and kept within physiological range (3.5-4.5 pCC). Once stabilized, rats were paralyzed with rocuronium bromide (10 mg/ml, 1 ml/hr continuous intravenous infusion) and ventilated. For stimulation of the cranial dura later in the experiment, a 5×5-mm opening was carefully carved in the parietal and occipital bones in front and behind the lambda suture, directly above the left transverse sinus. The exposed dura was kept moist using a modified synthetic interstitial fluid (135 mM NaCl, 5 mM KCl, 1 mM MgCh, 5 mM CaCh, 10 mM glucose and 10 mM Hepes, pH 7.2). For single-unit recording in the spinal trigeminal nucleus, a segment of the spinal cord between the obex and C2 was uncovered from overlying tissues, stripped of the dura mater, and kept moist with mineral oil.
(§2) To record neuronal activity, a tungsten microelectrode (impedance 3-4 MO) was lowered repeatedly into the spinal trigeminal nucleus (STN) in search of central trigeminovascular neurons receiving convergent input from the dura and facial skin. Trigeminovascular neurons were first identified based on their responses to electrical stimulation of the dura. […] Dural receptive fields were mapped by indenting the dura (with the 4.19 g VFH monofilament) at points separated by 1 mm mediolaterally and rostrocaudally. Points at which dural indentation produced a response in >50% of the trials were considered inside the neurons receptive field. Cutaneous receptive fields were mapped by applying innocuous and noxious mechanical stimulation to all facial skin areas and the cornea. An area was considered outside the receptive field if no stimulus produced a response in >50% of the trials. Responses to mechanical stimulation of the skin were determined by applying brief (10 s) innocuous and noxious stimuli to the most sensitive portion of the cutaneous receptive field. Innocuous stimuli consisted of slowly passing a soft bristled brush across the cutaneous receptive field (one 5-s brush stroke from caudal to rostral and one 5-s brush stroke from rostral to caudal) and pressure applied with a loose arterial clip. Noxious stimuli consisted of pinch with a strong arterial clip (Palecek et al, 1992, J. Neurophysiol. 67: 1562-1573; Dado et al, 1994, J. Neurophysiol. 71:981-1002; Burstein et al., 1998, J. Neurophysiol. 79:964-982). More intense or prolonged stimuli were not used to avoid inducing prolonged changes in spontaneous neuronal discharge or response properties. Responses to mechanical stimulation of the cornea consisted of gentle and slow brushing strokes with a thin paintbrush (about 10 hair-follicles). Two classes of neurons were thus identified: wide-dynamic-range (WDR) neurons (incrementally responsive to brush, pressure and pinch), and high-threshold (HT) neurons (unresponsive to brush). Real-time waveform discriminator was used to create and store a template for the action potential evoked in the neuron under study by electrical pulses on the dura; spikes of activity matching the template waveform were acquired and analyzed online and offline using Spike 2 software (CED, Cambridge, UK). Induction and recording of cortical spreading depression.
(§3) Cortical spreading depression (CSD) was induced mechanically by inserting a glass micropipette (tip diameter 25 μm) about 1 mm into the visual cortex for 10 sec. […]

[3] = system: wide-dynamic-range (WDR) trigeminovascular neurons; assay: Activation of WDR trigeminovascular neurons by cortical spreading depression (CSD); assay type: in vivo, rat; conditions: male and female rats, 30 mg/kg IV
Source text: Experiments were approved by the Beth Israel Deaconess Medical Center and Harvard Medical School standing committees on animal care, and in accordance with the U. S. National Institutes of Health Guide for the Care and Use of Laboratory Animals. Male and female Sprague-Dawley rats (250-350 g) were anesthetized with urethane (0.9-1.2 g/kg i.p.). They were fitted with an intra-tracheal tube to allow artificial ventilation (0.1 L/min of O2), and an intra-femoral-vein cannula for later infusion of drugs. Rats were placed in a stereotaxic apparatus, and core temperature was kept at 37° C. using a heating blanket. End-tidal CC was continuously monitored and kept within physiological range (3.5-4.5 pCC). Once stabilized, rats were paralyzed with rocuronium bromide (10 mg/ml, 1 ml/hr continuous intravenous infusion) and ventilated. […]
To record neuronal activity, a tungsten microelectrode (impedance 3-4 MO) was lowered repeatedly into the spinal trigeminal nucleus (STN) in search of central trigeminovascular neurons receiving convergent input from the dura and facial skin. […] Responses to mechanical stimulation of the skin were determined by applying brief (10 s) innocuous and noxious stimuli to the most sensitive portion of the cutaneous receptive field. […]

meningeal Aδ-fibers = conditions: in vivo; cited from earlier work
[4] = system: naive wide-dynamic-range (WDR) trigeminovascular neurons in the spinal trigeminal nucleus; assay: Single-unit recording of spontaneous and evoked activity of naive WDR trigeminovascular neurons; assay type: in vivo, rat; conditions: 30 mg/kg IV
Source text: as §1, with “For single-unit recording in the spinal trigeminal nucleus, a segment of the spinal cord between the obex and C2 was uncovered from overlying tissues, stripped of the dura mater, and kept moist with mineral oil.” left out
To record neuronal activity, a tungsten microelectrode (impedance 3-4 MO) was lowered repeatedly into the spinal trigeminal nucleus (STN) in search of central trigeminovascular neurons receiving convergent input from the dura and facial skin. […] Responses to mechanical stimulation of the skin were determined by applying brief (10 s) innocuous and noxious stimuli to the most sensitive portion of the cutaneous receptive field. […] Real-time waveform discriminator was used to create and store a template for the action potential evoked in the neuron under study by electrical pulses on the dura; spikes of activity matching the template waveform were acquired and analyzed online and offline using Spike 2 software (CED, Cambridge, UK). […]

[5] = system: high-threshold (HT) trigeminovascular neurons; assay: Activation and sensitization of HT trigeminovascular neurons by cortical spreading depression (CSD); assay type: in vivo, rat; conditions: 30 mg/kg IV; for mean firing rate of HT neurons before CSD: before CSD (4 hours post-treatment)
Source text: as §1, §2, §3

[6] = female rats, 2 hours after CSD, 6 hours after administration
[7] = male and female rats, 2 hours after CSD, 6 hours after administration
[8] = male rats, 2 hours after CSD, 6 hours after administration

## NCCCC[C@H](NC(=O)[C@@H](Cc1cc(Br)c(O)c(Br)c1)NC(=O)N1CCC(N2Cc3ccccc3NC2=O)CC1)C(=O)N1CCN(c2ccncc2)CC1 [BIBN4096BS]
[1]
  effect on naive central trigeminovascular neurons responses to electrical stimulation of the superior sagittal sinus and microiontophoretic L-glutamate: inhibits

## fremanezumab [CGRP-mAb]
[2]; female rats
  decrease in firing of HT neurons to mechanical stimulation of the dura: 61%
  effect on spontaneous activity of HT neurons: did not reduce the spontaneous activity of HT or WDR neurons
[2]; male and female rats
  effect on sensitivity of HT neurons to mechanical stimulation of the dura: reduced the sensitivity to mechanical stimulation of the dura in the HT
[2]; male or female rats
  effect on responses of HT neurons to innocuous (brush, pressure) or noxious (pinch) mechanical stimulation of the skin or the cornea: did not alter the responses of HT or WDR neurons
[2]; male rats
  decrease in firing of HT neurons to mechanical stimulation of the dura: 75%
  effect on spontaneous activity of HT neurons: reduced the spontaneous activity of the HT
[2]; male rats, within 3-4 hrs
  decrease in spontaneous neuronal firing of HT neurons: 90%
[3]
  difference in proportion of WDR neurons activated by CSD, CGRP-mAb vs isotype-conAb: 2%
[3]; activated/tested neurons
  WDR neurons activated by CSD (case-by-case analysis): 5/13
Meningeal Aδ-fibers
  effect on meningeal Aδ-fibers: inhibits
[4]; female rats
  effect on spontaneous activity of WDR neurons: did not reduce the spontaneous activity of HT or WDR neurons
[4]; male and female rats
  effect on sensitivity of WDR neurons to mechanical stimulation of the dura: but not the WDR neurons
[4]; male or female rats
  effect on responses of WDR neurons to innocuous (brush, pressure) or noxious (pinch) mechanical stimulation of the skin or the cornea: did not alter the responses of HT or WDR neurons
[5]; female rats
  HT neurons with expanded dural receptive fields after CSD: 0/6
  HT neurons with expanded facial receptive fields after CSD: 0/6
  change of HT response to brushing the cornea after CSD: remained unchanged
  mean firing rate of HT neurons before CSD: 3.3±1.7 spikes/sec
[5]; [6]
  HT neuronal responses to dural indentation with VFH after CSD: 8.1±6.4 spikes/sec
  mean firing rate of HT neurons after CSD: 5.0±3.4 spikes/sec
[5]; female rats, before CSD
  HT neuronal responses to dural indentation with VFH before CSD: 10.5±1.6 spikes/sec
[5]; male and female rats
  difference in proportion of HT neurons activated by CSD, CGRP-mAb vs isotype-conAb: 86%
[5]; [7]
  change of HT neuronal responses to brush after CSD: remained unchanged
  change of HT neuronal responses to pinch after CSD: remained unchanged
  change of HT neuronal responses to pressure after CSD: remained unchanged
[5]; male and female rats, activated/tested neurons
  HT neurons activated by CSD (case-by-case analysis): 2/14
[5]; male rats
  HT neurons with expanded dural receptive fields after CSD: 2/8
  HT neurons with expanded facial receptive fields after CSD: 2/8
  mean firing rate of HT neurons before CSD: 1.2±0.6 spikes/sec
[5]; [8]
  HT neuronal responses to dural indentation with VFH after CSD: 1.9±1.5 spikes/sec
  mean firing rate of HT neurons after CSD: 1.9±1.5 spikes/sec
[5]; male rats, after CSD
  HT responses to corneal stimulation after CSD: 9. ±1.8 spikes/sec
[5]; male rats, before CSD
  HT neuronal responses to dural indentation with VFH before CSD: 1.8±0.6 spikes/sec
  HT responses to corneal stimulation before CSD: 10.8±3.3 spikes/sec

Source: patent US20240139171A1, “TREATMENT AND/OR REDUCTION OF OCCURRENCE OF MIGRAINE” (CGRP Diagnostics GmbH, priority 2021, published 2024)
